This note sets out measurements from US4374149A, “α-{[(Arylalkyl)amino]alkyl}-4-hydroxy-3-(lower-alkylsul finyl)benzenemethanols” (Sterling Drug Inc., priority 1978, dated 1983).

Several values for one entry are separate records, joined by “and”; a condition that tells them apart may be missing. Identical values can stand only once. Counter-ions that a name gives are not always drawn.

One data set deals with papillary muscle. The data set can be described thus: Cardiotonic test procedure IB, isolated cat papillary muscle. Conditions: in vitro. The protocol: The efficacy of this compound was judged, in vitro, on the basis of percent increase in contractile force in isolated cat atria and papillary muscle and, in vitro, on the basis of percent increase in cardiac contractile force in the intact anesthetized dog. Male cats 0.8 to 1.5 kg. were anethetized with α-chloralose (80 mg./kg. i.p.). The chest was opened and the heart excised. The heart was dipped and shaken in Tyrode's solution for the removal of blood from the cavities. The right ventricle was then slit open and the small and thin (about 1 mm. in diameter and 4 to 7 mm. in length) papillary muscles were dissected out. A silver wire was attached to each of the two ends of the papillary muscle. The ventricular end was attached to a platinum electrode and mounted in a tissue bath containing Tyrode's solution described above. The silver wire on the valvular end of the muscle was attached to a force displacement transducer for the measurement of the force and rate of muscle contraction. The muscle was stimulated at a rate of 3 beats/sec. by suprathreshold rectangular pulses of 5 millisecond duration. The rest of the procedure was continued as described above.

The next data set has as its system Ba++-induced arrhythmia. The data set can be described thus: Conversion of Ba++-induced arrhythmia in rabbits. The class given is in vivo. Further details: key: active (A); inactive (I). The following applies: 1 × 10^-5 M/kg. The protocol:
(§1) The test procedures were carried out as follows.
Adult rabbits or either sex weighing between 1.7 and 2.3 kg. were anesthetized with 30 to 35 mg./kg. Na-pentobarbital i.v. via a marginal ear vein. Monoplar ECG pin electrodes were inserted for a lead II display on a Model 5 Grass Polygraph using standard electrocardiographic procedures. A 23 ga. hypodermic needle, attached via a polyethylene catheter to a 10 cc. syringe, was inserted into the same vein as was used for anesthesia. A BaCl2.2H2 O solution in saline was then infused at a constant volume of 0.2 cc/min. from a Harvard Apparatus Model 600 infusion pump. This infusion was not stopped until termination of the experiment. In some studies barium chloride in distilled water was used without detectable differences. The standard rate of BaCl2.2H2 O infusion was established at 0.3 mg./kg./min. (1.2×10^-6 M/kg./min.), and the concentration was adjusted appropriately in each case to accommodate the weight of the rabbit.
When the desired arrhythmia was established, the test compound was introduced as a water or saline solution into the marginal ear vein of the unused ear. The volume used was between 0.5 and 2.0 cc./kg. and was injected as a bolus over approximately 30 seconds. Deviations from standard vehicle, rate of injection and total volume administered were at the discretion of the operator. The standard initial dose of an unknown compound on the first rabbit was 5×10^-5 M/kg. In general, two to three rabbits were used to determine anti-arrhythmic activity and the dose range of activity; multiple doses were administered. Once activity and dose was indicated, two additional rabbits were employed to confirm anti-arrhythmic activity against a multifocal tachycardia.

The subject of the next data set is isolated cat atria. Briefly: Cardiotonic test procedure I, isolated cat atria. The following applies: for Increase in right atrial force / Increase in right atrial rate: in vitro. The method, then:
The efficacy of this compound was judged, in vitro, on the basis of percent increase in contractile force in isolated cat atria and papillary muscle and, in vitro, on the basis of percent increase in cardiac contractile force in the intact anesthetized dog. Male cats weighing from 0.8 to 1.5 kg. were anesthetized with α-chloralose (80 mg./kg. i.p.). The chest was opened, the heart excised and the two atria dissected. A silk suture was tied to each of two opposite sides of the right atrium. One side of the atrium was tied to a glass rod and then mounted in a 50 ml. organ bath filled with Tyrode's solution. […] The transducer was then connected to a Grass polygraph and the force and rate of atrial contraction was recorded continuously. The left atrium was treated similarly using silver wire instead of silk sutures. The silver wire also served as a stimulating electrode. Both atria were mounted in the same bath. The right atrium was beating spontaneously due to the presence of the sinoatrial node, while the left atrium was stimulated electrically at a rate of 3 beats/sec. by suprathreshold rectangular pulses of 5 millisecond duration. The Tyrode's solution bathing the atria was of the following composition (in mM): NaCl 136.87, KCl 5.36, NaH2 PO4 0.41, CaCl2 1.80, MgCl2 6H2 O 1.05, NaHCO3 11.90, glucose 5.55 and EDTA 0.04. […] The preparation was left to equilibrate for one hour before any drug was added. The bathing fluid was changed 3 to 4 times during the equilibration time. At the end of equilibration period, the drug dissolved in a vehicle or the vehicle alone was added to the tissue bath and the full response recorded. The vehicle used was Tyrode' s solution to which, if required, sufficient acid was added to cause solution of the drug. […] Generally, a dose response study of at least 3 doses was done in the same preparation.

Data set [1] deals with Ouabain-induced arrhythmia. The data set can be described thus: Conversion of ouabain-induced arrhythmia in dogs. Conditions: 5 × 10^-6 M/kg. The class given is in vivo, mongrel dogs. Further details: key: active (A); inactive (I). The method, then: as §1
Na-pentobarbital supplements were given i.v. as needed.
Both parameters were printed out on a Grass polygraph.

For data set [2], the system named is cardiac contractile force. The data set can be described thus: Cardiotonic test procedure II, intact anesthetized dog. The class given is in vivo, mongrel dogs. Conditions: i.v. infusion 10 mcg./kg./min. over 3 hrs. The protocol:
The efficacy of this compound was judged, in vitro, on the basis of percent increase in contractile force in isolated cat atria and papillary muscle and, in vitro, on the basis of percent increase in cardiac contractile force in the intact anesthetized dog. The in vivo test procedure used is described as follows: Mongrel dogs of both sexes and varying in weight from 9 to 15 kg. were anesthetized with 30 mg./kg. pentobarbital sodium administered intravenously. The trachea was exposed and cannulated. The tracheal cannula was then attached to a Harvard respiratory pump using room air. The right femoral artery and vein were cannulated. […] The venous cannula was used for the intravenous administration of drugs. Pin electrodes were attached to the right forelimb and left hindlimb. The electrodes were then connected to a Grass polygraph for the continuous recording of the standard limb lead II electrocardiogram. A ventro-dorsal incision at the third inter-costal space was made, the ribs laterally retracted and the pericardium slit open to expose the myocardium. The base of the aorta was dissected and a flow probe was fitted around it. The flow probe was attached to a square wave electromagnetic flowmeter (Carolina Medical Electronics). The flowmeter was then connected to a Grass polygraph for the continuous recording of aortic blood flow. This flow was used as an index of cardiac output (actual cardiac output is aortic blood flow+coronary blood flow). Cardiac contractile force was measured by suturing a Walton-Brodie strain gauge to the wall of the right ventricle. At the end of the surgical procedure, the animal was left to rest and equilibrate for one hour with continuous recording of blood pressure, EKG, cardiac contractile force and aortic blood flow. After the equilibration period, the vehicle or the drug dissolved in the vehicle was administered by intravenous infusion (i.v. inf.), intravenous bolus (i.v. bol.) or intraduodenally (i.d.) and the response of all the parameters measured to drug administration was recorded continuously for different periods of times depending on the route of drug administration. When the route of administration was i.v. inf., the drug was administered until a peak effect was reached and infusion was then maintained for ten minutes. The above-described test systems were standardized using dopamine.

The subject of data set [3] is isolated rabbit ear artery. The data set can be described thus: Vasodilator activity, perfusion pressure in isolated rabbit ear artery. From the text:
(§2) Vasodilator activity was judged on the basis of observed reduction in perfusion pressure in the hind limb vasculature of the anesthetized dog determined according to the procedure described by Jandhyala et al., European J. Pharm. 17, 357 (1972), and also on the basis of percent reduction in perfusion pressure as measured in the isolated rabbit ear artery according to the method described by De LaLande et al., Aust. J. Exp. Biol. Med. Sci. 43, 639 (1965).
^d Vasodilation is expressed as the percentage reduction in perfusion

The nature of data set [4]: Local anesthetic activity (method of Bulbring and Wadja). It counts as in vivo. The following applies: compared with procaine. The method, then:
D. Following a procedure similar to that described in Example 2G but using 2.5 g. (0.0049 mole) of dextrorotatory 4-hydroxy-α-<{[3-(4-methoxyphenyl)-1-methylpropyl]amino}methyl>- 3-(methylthio)benzenemethanol acetate salt (m.p. 124°-126° C., [α]D^25 =+7.7°) and 375 mg. of commercial 40% peracetic acid there was obtained 2.0 g. of 4-hydroxy-α-<{[3-(4-methoxyphenyl)-1-methylpropyl]amino}methyl>-3-(methylsulfinyl)benzenemethanol acetate salt as an amorphous yellow powder [α]D^25 =+4.2° containing a mixture of 4 diastereomeric sulfoxides. […] Exp. Therap. 85, 78 (1945).

The next data set concerns β-adrenergic. Briefly: β-adrenergic blocking activity, inhibition of isoproterenol-elicited heart rate increase in pentobarbitalized dog. Conditions: i.v., pentobarbitalized dog. It counts as in vivo.
The next data set deals with hind limb vasculature. Briefly: Vasodilator activity, perfusion pressure in hind limb vasculature of anesthetized dog. It counts as in vivo.
Source text: as §2
^c AED50 = approximate intraarterial dose required to cause a 50

A further data set has as its system blood pressure. Briefly: Antihypertensive activity, sustained lowering of blood pressure, repeated oral medication, unanesthetized trained renal hypertensive dog. It counts as in vivo. Conditions: tid.
A further data set has as its system systolic blood pressure. Briefly: Antihypertensive activity, reduction in systolic blood pressure, single oral medication, unanesthetized spontaneous hypertensive rat. It counts as in vivo. The following applies: P.O., single dose, unanesthetized SH rat.
A short description of a further data set: 7-day oral LD50 in rats. It counts as in vivo.
The test system of data set [5] is histamine-induced bronchoconstriction. Briefly: β-adrenergic stimulant activity, block of histamine-induced bronchoconstriction in the dog. The class given is in vivo.

Method for systolic blood pressure: Antihypertensive activity was determined on the basis of the observed reduction in systolic blood pressure measured according to the method of H. Kersten et al., J. Lab. and Clin. Med. 32, 1090 (1947) following a single oral medication in the unanesthetized spontaneous hypertensive rat described by Okamato et al., Japan Circulation J. 27, 282 (1963).
^a AHD40 = single oral dose required to induce a 40 mm. average

For `COc1ccc(CCC(C)NCC(O)c2ccc(O)c([S+](C)[O-])c2)cc1` (stereo not drawn) [Example 5H, 4-hydroxy-α-<{[3-(4-methoxyphenyl)-1-methylpropyl]amino}methyl>-3-(methylsulfinyl)benzenemethanol hydrochloride], the “Decrease in papillary muscle force” value with papillary muscle (1 mg./ml.) was determined as 14%. Further, the “Decrease in papillary muscle force” value with papillary muscle (10 mcg./ml.) is 12%. In the data set on Ba++-induced arrhythmia, the “Conversion of Ba++-induced Arrhythmia” value is on record as “A”. Also, in the data set with isolated cat atria (1 mg./ml.), the “Increase in right atrial force” value was found to be 52% and the “Increase in right atrial rate” value stood at 62%. Also, in the data set on isolated cat atria (10 mcg./ml.), the “Increase in right atrial force” value came out at 46% and the “Increase in right atrial rate” value was determined as 53%. In addition, the “Cardiotonic activity (in words)” value with isolated cat atria (one or more of the cardiotonic test procedures) is “useful cardiotonic activity”. Further, the “Conversion of Ouabain-induced Arrhythmia” value in data set [1] is recorded as “A”. Also, the “Change in heart rate” value in data set [2] (2 of 3 dogs) is reported as “no significant change in heart rate”. Besides, the “Maximum increase in cardiac contractile force” value in data set [2] (2 of 3 dogs, I, hydrochloride) was 25% and 42%. Further, in data set [2] (remaining dog), the “Decrease in contractile force” value is given as 30% and the “Decrease in heart rate” value is 33%. The “Rabbit Ear Artery vasodilation (percentage reduction in perfusion pressure from control level)” value in data set [3] (1 × 10^-4 M, 100 µM, hydrochloride) was 64%.

As for `COc1ccc(CCC(C)NCC(O)c2ccc(O)c([S+](C)[O-])c2)cc1` (stereo not drawn) [Example 5D, 4-hydroxy-α-<{[3-(4-methoxyphenyl)-1-methylpropyl]amino}methyl>-3-(methylsulfinyl)benzenemethanol acetate salt], the Local anesthetic activity entry in [4] is “equi-active with procaine as a local anesthetic”. Besides, the “Dog β-blockade AED50 (approximate intravenous dose for 50% inhibition of isoproterenol-elicited heart rate increase)” value with β-adrenergic (acetate salt) was 0.125 mg/kg. Besides, in the data set with hind limb vasculature (intraarterial, anesthetized dog hind limb, acetate salt), the “Vasodilator activity Dog-Leg Perfusion AED50 (approximate intraarterial dose for 50 reduction in perfusion pressure)” value is 0.5 mg/kg. For the same compound, the “Rabbit Ear Artery vasodilation (percentage reduction in perfusion pressure from control level)” value in data set [3] (5 × 10^-5 M, 50 µM, acetate salt) amounted to 49%. Besides, the “Renal Hypertensive Dog MED10 (minimum repeated oral daily dose for sustained lowering of blood pressure of 10% or greater)” value in the data set with blood pressure worked out at 0.0316 mg/kg. Also, the “Antihypertensive activity SH Rat AHD40 (single oral dose required to induce a 40 mm. average reduction in systolic blood pressure)” value with systolic blood pressure (acetate salt) came out at 3.0 mg/kg.

One may read the LD50 as the dose expected to kill half of the subjects tested. As for `COc1ccc(CCC(C)NCC(O)c2ccc(O)c([S+](C)[O-])c2)cc1` (stereo not drawn) [Example 5E, 4-hydroxy-α-<{[3-(4-methoxyphenyl)-1-methylpropyl]amino}methyl>-3-(methylsulfinyl)benzenemethanol acetate salt], the “Body weight and gross tissue changes” value in “7-day oral LD50 in rats” (animals sacrificed 7 days post-medication) is “No changes in body weight and no gross tissue changes”. In addition, the “7-day oral LD50” value in the data set “7-day oral LD50 in rats” (oral, rats, two separate batches, acetate salt, 10080 min) was 1940 mg/kg. Also, in the data set “7-day oral LD50 in rats” (rat, in vivo, po, rats, two separate batches), the LD50 at 168 h was 1850 mg/kg.

As to `COc1ccc(CC(C)NCC(O)c2ccc(O)c([S+](C)[O-])c2)cc1` (stereo not drawn) [Example 1I, 4-hydroxy-α-<{[2-(4-methoxyphenyl)-1-methylethyl]amino}methyl>-3-(methylsulfinyl)benzenemethanol hydrochloride], in [5], the β-adrenergic stimulant activity entry is recorded as “ability to block histamine-induced bronchoconstriction in the dog”. Besides, the “Dog β-blockade AED50 (approximate intravenous dose for 50% inhibition of isoproterenol-elicited heart rate increase)” value in the data set with β-adrenergic amounted to 0.04 mg/kg. Further, in the data set with hind limb vasculature (Canis lupus familiaris, read-out: Vasodilator activity Dog-Leg Perfusion AED50 (approximate intraarterial dose for 50 reduction in perfusion pressure)), the ED50 worked out at 0.25 mg/kg. In addition, the “Rabbit Ear Artery vasodilation (percentage reduction in perfusion pressure from control level)” value in data set [3] (6.25 × 10^-5 M, 62.5 µM) stood at 53%. Further, the “Renal Hypertensive Dog MED10 (minimum repeated oral daily dose for sustained lowering of blood pressure of 10% or greater)” value in the data set with blood pressure turned out to be 1.25 mg/kg. Further, the “Antihypertensive activity SH Rat AHD40 (single oral dose required to induce a 40 mm. average reduction in systolic blood pressure)” value with systolic blood pressure is 2.0 mg/kg.
